The target of test [1] is T1, DPP1 (Homo sapiens, UniProt P53634). The test can be described thus: Cell Assay (DPP1 IC50 values, Table 2). It is filed as cell-based. The following applies: method not described.
Target sequence in this assay (P53634 25-463): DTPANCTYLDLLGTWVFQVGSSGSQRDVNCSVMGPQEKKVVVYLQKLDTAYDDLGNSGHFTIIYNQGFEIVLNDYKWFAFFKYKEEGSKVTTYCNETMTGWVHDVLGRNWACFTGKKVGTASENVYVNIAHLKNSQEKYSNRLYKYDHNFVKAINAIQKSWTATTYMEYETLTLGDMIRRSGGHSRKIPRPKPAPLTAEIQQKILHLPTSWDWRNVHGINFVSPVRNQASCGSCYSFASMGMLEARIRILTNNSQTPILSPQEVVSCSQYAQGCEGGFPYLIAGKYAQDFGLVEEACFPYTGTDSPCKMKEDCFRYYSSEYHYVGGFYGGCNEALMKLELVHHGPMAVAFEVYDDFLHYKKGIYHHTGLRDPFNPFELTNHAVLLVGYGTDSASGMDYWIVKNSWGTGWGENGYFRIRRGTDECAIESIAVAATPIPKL
In test [2] the target is T1, DPP1. The test can be described thus: Human DPP1 Enzyme IC50 Assay. As to conditions: activated recombinant human DPP1, H-Gly-Arg-AMC substrate 400 μM, pH 6.0. The class given is biochemical. Further details: is first proteolytically processed into its mature form using recombinant human cathepsin L; purchased R&D Systems. Here is the method:
Human DPP1 Enzyme IC50 Assay
Recombinant human DPP1 enzyme (R&D Systems; Minneapolis, MN) is first proteolytically processed into its mature form using recombinant human cathepsin L (R&D Systems) in a buffer consisting of 20 mM citric acid pH 4.5, 150 mM NaCl, 1 mM EDTA and 10 mM DTT. Test articles are applied to activated human DPP1 enzyme in Assay Buffer (25 mM MES pH 6.0, 50 mM NaCl, 5 mM DTT) in a total reaction volume of 125 μL. 25 μL of compound in Assay Buffer plus 5% DMSO is first added to 50 μL of activated human DPP1 enzyme at a concentration of 1 ng/μL and allowed to pre-incubate for 10 minutes at 37° C. after which 50 μL of 1000 μM H-Gly-Arg-AMC substrate (Bachem; St. Torrance, CA) is added, giving final substrate concentration of 400 μM and a final DMSO concentration of 1%. Substrate cleavage is measured for 90 minutes at 37° C., with fluorescence at Excitation/Emission 350/450 nm measured every 5 minutes. DPP1 concentration is interpolated based on its activity relative to a standard curve of activated human recombinant DPP1 enzyme. IC50 values for each compound are calculated via the XLFit (IDBS Version 5.3.1.3) Add-On to Microsoft Excel using the four parameter fit equation y={A+[(B−A)]/[1+((C/x)^D)]}, which appears as equation number 205 (4 Parameter Logistic Model or Sigmoidal Dose-Response Model) in XLFit. Default constraints are used for each Parameter. IC50 is defined as the compound concentration at which […] of enzyme activity is inhibited when compared to the no-compound control. The IC50 table is included in the table below.
Target sequence in this assay (P53634 25-134 limits assumed): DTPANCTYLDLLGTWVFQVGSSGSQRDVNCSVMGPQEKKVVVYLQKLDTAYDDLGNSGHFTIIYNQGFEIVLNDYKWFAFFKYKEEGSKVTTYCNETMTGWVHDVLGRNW
Target sequence in this assay (P53634 231-394 limits assumed): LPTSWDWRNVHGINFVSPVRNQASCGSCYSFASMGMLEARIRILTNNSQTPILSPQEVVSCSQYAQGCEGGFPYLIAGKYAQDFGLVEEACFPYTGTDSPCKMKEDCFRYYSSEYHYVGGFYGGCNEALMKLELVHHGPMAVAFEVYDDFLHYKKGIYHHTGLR
Target sequence in this assay (P53634 395-463 limits assumed): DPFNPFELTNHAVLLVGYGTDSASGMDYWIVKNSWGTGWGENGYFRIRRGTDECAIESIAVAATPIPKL

Another test has as its target T2, active mouse DPP1 enzyme (Mus musculus, UniProt P97821).
T2 construct: Test articles are applied to active mouse DPP1 enzyme; purchased R&D Systems
The test can be described thus: Mouse DPP1 Enzyme IC50 Assay. As to conditions: active mouse DPP1, H-Gly-Arg-AMC substrate 400 μM, pH 5.5. It is filed as biochemical. The method, then:
Mouse DPP1 Enzyme IC50 Assay
Test articles are applied to active mouse DPP1 enzyme (R&D Systems; Minneapolis, MN) in Assay Buffer (50 mM MES pH 5.5, 50 mM NaCl, 5 mM DTT) in a total reaction volume of 125 μL. 25 μL of compound in Assay Buffer plus 5% DMSO is first added to 50 μL of active mouse DPP1 enzyme at a concentration of 62.5 pg/μL and allowed to pre-incubate for 10 minutes at 37° C. after which 50 μL of 1000 μM H-Gly-Arg-AMC substrate (Bachem; St. Torrance, CA) is added, giving final substrate concentration of 400 μM and a final DMSO concentration of 1%. Substrate cleavage is measured for 90 minutes at 37° C., with fluorescence at Excitation/Emission 350/450 nm measured every 5 minutes. DPP1 concentration is interpolated based on its activity relative to a standard curve of recombinant active mouse DPP1 enzyme. IC50 values for each compound are calculated via the XLFit (IDBS Version 5.3.1.3) Add-On to Microsoft Excel using the four parameter fit equation y=(A+((B-A)/(1+((C/x)^D)))), which appears as equation number 205 (4 Parameter Logistic Model or Sigmoidal Dose-Response Model) in XLFit. Default constraints are used for each Parameter. IC50 is defined as the compound concentration at which 50% of enzyme activity is inhibited when compared to the no-compound control.

The structures appear in SMILES notation. Where only a bound is given, the exact number is not on record here.

T2 sequence (P97821 25-134 limits assumed): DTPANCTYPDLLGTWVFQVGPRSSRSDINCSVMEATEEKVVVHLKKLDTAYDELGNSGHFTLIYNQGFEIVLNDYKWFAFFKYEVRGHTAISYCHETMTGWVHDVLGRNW
T2 sequence (P97821 231-393 limits assumed): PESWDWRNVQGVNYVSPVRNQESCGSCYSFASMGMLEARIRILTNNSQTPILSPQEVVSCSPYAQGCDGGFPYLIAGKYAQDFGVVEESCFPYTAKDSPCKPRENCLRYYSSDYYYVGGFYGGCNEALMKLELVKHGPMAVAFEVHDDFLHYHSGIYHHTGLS
T2 sequence (P97821 394-462 limits assumed): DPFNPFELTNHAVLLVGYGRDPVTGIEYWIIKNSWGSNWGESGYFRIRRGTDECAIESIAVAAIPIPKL

Take `Cn1c(=O)oc2ccc(-c3cc4cc(C[C@@H](C#N)NC(=O)C5CNCCCO5)ccc4s3)cc21` (stereo partly shown) [Compound 131b]: the IC50 against DPP1 [1] is ≥ 1.5 nM; on DPP1 [2], ≥ 15 nM.
For `CCN1C(=O)Cc2ccc(-c3cc4sc(C[C@@H](C#N)NC(=O)[C@@H]5CNCCCCO5)cc4s3)cc21` [Compound 138b, (2S)—N-[(1S)-1-cyano-2-[5-(1-ethyl-2-oxo-3H-indol-6-yl)thieno[3,2-b]thiophen-2-yl]ethyl]-1,4-oxazocane-2-carboxamide] the same measures were ≥ 1.5 nM and ≥ 15 nM.
For `Cn1c(=O)oc2ccc(-c3cc4sc(C[C@H](C#N)NC(=O)[C@@H]5CNCCCCO5)cc4s3)cc21` [Compound 139c, (2S)—N-[(1R)-1-cyano-2-[5-(3-methyl-2-oxo-1,3-benzoxazol-5-yl)thieno[3,2-b]thiophen-2-yl]ethyl]-1,4-oxazocane-2-carboxamide] the same measures were ≥ 1.5 nM and ≥ 15 nM.
Regarding `Cn1c(=O)oc2ccc(-c3ccc4c(F)c(C[C@@H](C#N)NC(=O)[C@@H]5CNCCCO5)sc4c3)cc21` [Compound 130b], the IC50 is ≥ 1.5 nM against DPP1 [1] and ≥ 15 nM on DPP1 [2].
As for `Cn1c(=O)oc2ccc(-c3ccc4cc(C[C@@H](C#N)NC(=O)[C@@H]5CNCCCO5)sc4c3)cc21` [Compound 113b], the IC50 was ≥ 1.5 nM against DPP1 [1], ≥ 15 nM at DPP1 [2] and ≥ 20 nM against active mouse DPP1 enzyme.
`Cn1c(=O)oc2ccc(-c3cc4sc(C[C@@H](C#N)NC(=O)[C@@H]5CNCCCCO5)cc4s3)cc21` [Compound 139b, (2S)—N-[(1S)-1-cyano-2-[5-(3-methyl-2-oxo-1,3-benzoxazol-5-yl)thieno[3,2-b]thiophen-2-yl]ethyl]-1,4-oxazocane-2-carboxamide]: the results for the IC50 at DPP1 [1] and at DPP1 [2] were ≥ 1.5 nM and ≥ 15 nM, respectively.
Consider `Cn1c(=O)oc2ccc(-c3cc4ccc(C[C@@H](C#N)NC(=O)C5CNCCCO5)cc4s3)cc21` (stereo partly shown) [Compound 112b], for which the half-inhibitory concentration (IC50) on DPP1 [2] was ≥ 15 nM.
Take `CO[C@@H]1CCNC[C@@H](C(=O)N[C@H](C#N)Cc2cc3sc(-c4ccc5oc(=O)n(C)c5c4)cc3s2)OC1` [Compound 142b]: the results for the IC50 on DPP1 [1] and on DPP1 [2] were ≥ 1.5 nM and 5 to 15 nM, respectively.
In the case of `Cn1c(=O)oc2ccc(C34CC(C[C@@H](C#N)NC(=O)[C@@H]5CNCCCO5)(C3)C4)cc21` [Compound 101d], the IC50 on DPP1 [2] is ≥ 15 nM.
For the compound `Cn1c(=O)oc2ccc(-c3cc4ccc(C[C@@H](C#N)NC(=O)[C@@H]5CNCCCO5)c(F)c4s3)cc21` [Compound 134a], the figures for the IC50 against DPP1 [1] and at DPP1 [2] were ≥ 1.5 nM and ≥ 15 nM, respectively.
As for `Cn1c(=O)oc2ccc(-c3ccc4sc(C[C@@H](C#N)NC(=O)[C@@H]5CNCCCO5)c(F)c4c3)cc21` [Compound 115b], the IC50 against DPP1 [1] is ≥ 1.5 nM; on DPP1 [2], ≥ 15 nM; on active mouse DPP1 enzyme it was ≥ 20 nM.
Consider `Cn1c(=O)oc2ccc(-c3ccc4cc(CC(C#N)NC(=O)[C@@H]5CNCCCO5)ccc4c3)cc21` (stereo partly drawn) [Compound 133b, (2S)—N-{1-cyano-2-[6-(3-methyl-2-oxo-1,3-benzoxazol-5-yl)naphthalen-2-yl]ethyl}-1,4-oxazepane-2-carboxamide], for which the IC50 against DPP1 [1] was ≥ 1.5 nM; on DPP1 [2], ≥ 15 nM.
Regarding `Cn1c(=O)oc2ccc(-c3ccc4sc(C[C@@H](C#N)NC(=O)C5CNCCCO5)cc4c3)cc21` (stereo partly shown) [Compound 114b], the results for the IC50 against DPP1 [1], on DPP1 [2] and at active mouse DPP1 enzyme were ≥ 1.5 nM, ≥ 15 nM and ≥ 20 nM, respectively.
`Cn1c(=O)oc2ccc(-c3cc4sc(CC(C#N)NC(=O)[C@@H]5CNCCCO5)cc4s3)cc21` (stereo partly drawn) [Compound 118b, (2S)—N-(1-cyano-2-(5-(3-methyl-2-oxo-2,3-dihydrobenzo[d]oxazol-5-yl)thieno[3,2-b]thiophen-2-yl)ethyl)-1,4-oxazepane-2-carboxamide]: the IC50 was ≥ 1.5 nM against DPP1 [1], ≥ 15 nM on DPP1 [2] and ≥ 20 nM against active mouse DPP1 enzyme.
`Cn1c(=O)oc2ccc(-c3ccc4cc(CC(C#N)NC(=O)[C@@H]5CNCCCO5)[nH]c4c3)cc21` (stereo partly drawn) [Compound 128b, (2S)—N-(1-cyano-2-(6-(3-methyl-2-oxo-2,3-dihydrobenzo[d]oxazol-5-yl)-1H-indol-2-yl)ethyl)-1,4-oxazepane-2-carboxamide]: the results for the IC50 against DPP1 [1] and on DPP1 [2] were ≥ 1.5 nM and ≥ 15 nM, respectively.
Turning to `CCN1C(=O)Cc2ccc(-c3cc4sc(C[C@H](C#N)NC(=O)[C@@H]5CNCCCCO5)cc4s3)cc21` [Compound 138c, (2S)—N-[(1R)-1-cyano-2-[5-(1-ethyl-2-oxo-3H-indol-6-yl)thieno[3,2-b]thiophen-2-yl]ethyl]-1,4-oxazocane-2-carboxamide], the IC50 against DPP1 [1] is ≥ 1.5 nM; on DPP1 [2], ≥ 15 nM.

The IC50 is the point on the concentration scale where inhibition reaches its midpoint.

Values taken from patent publication US20260265207A1, “DPP1 INHIBITORS WITH POLYCYCLIC LINKERS AND USES THEREOF” (Insmed Incorporated, priority 2023, published 2026).
